Assay results taken from patent publication US8748482B2, “Lubiprostone crystal, the use and the method for the preparation thereof” (Shanghai Techwell Biopharmaceutical Co., Ltd, priority 2008, dated 2014).

Assay: Comparison of the stability: samples sealed and placed at 40° C. for 7 days, then impurities analysed
Assay type: physicochemical
Settings: for Initial Product Amount: before storage (initial); for Product Amount (after 7 days at 40° C.): sealed
Experimental: In the present Example, the stabilities of the oily lubiprostone (prepared according to Example 1) and the final products of Example 1 and Example 2 (crystal samples) were tested, and the results of the tests were compared. Oily lubiprostone, the sample of Example 1, and the sample of Example 2 were separately sealed and placed at 40° C. for 7 days. After completion, the amount of the impurities was analyzed.

Initial Product Amount | Product Amount (after 7 days at 40° C.) | stability (conclusion in words) (based on the data of Table 2 (sealed, 40° C., 7 days)) | Structure (SMILES)
100.0% | 99.9% |  | CCCCC(F)(F)[C@@]1(O)CCC2[C@@H](CC(=O)[C@@H]2CCCCCCC(=O)O)O1 (single isomer, unassigned; (-)) [Example 1]
100.0% | 99.9% |  | CCCCC(F)(F)[C@@]1(O)CCC2[C@@H](CC(=O)[C@@H]2CCCCCCC(=O)O)O1 (single isomer, unassigned; (-)) [Example 2]
99.9% | 95.8% |  | CCCCC(F)(F)[C@@]1(O)CCC2[C@@H](CC(=O)[C@@H]2CCCCCCC(=O)O)O1 (single isomer, unassigned; (-)) [Oily lubiprostone, reference compound]
 |  | excellent stability | CCCCC(F)(F)[C@@]1(O)CCC2[C@@H](CC(=O)[C@@H]2CCCCCCC(=O)O)O1 (single isomer, unassigned; (-)) [lubiprostone crystal]
